In US20240158446A1, “CYCLIC COMPOUND HAVING SELECTIVE INHIBITORY ACTION ON KRAS OVER HRAS AND NRAS” (CHUGAI SEIYAKU KABUSHIKI KAISHA, priority 2021, published 2024):
pKd: −log10 of the molar value. Read-outs that look alike come from different tables or passages of the source. Values belong to the compound of their own block, whether it stands above or below them. Where a SMILES comes first, the peptide text is derived from it. Bridges are numbered along the chain shown (N, C = ends). [ ]: non-standard residue; d: D form. The star is where a group is joined. hPhe(3-Cl-4-CF3) = N[C@@H](CCc1ccc(C(F)(F)F)c(Cl)c1)C(=O)O; NPrPhe(4-CF3) = CCCN[C@@H](Cc1ccc(C(F)(F)F)cc1)C(=O)O; NMeGly(cPent) = CN[C@H](C(=O)O)C1CCCC1; NEtLeu = CCN[C@@H](CC(C)C)C(=O)O; NMeD = CN[C@@H](CC(=O)O)C(=O)O; Morpholide = C1CN(*)CCO1; NMeA = CN[C@@H](C)C(=O)O; Ac5c = NC1(C(=O)O)CCCC1; Aze = O=C(O)[C@@H]1CCN1; Sar = CNCC(=O)O

Columns and labels:
[1] = molecular target: GDP-bound KRAS wild-type protein (Homo sapiens, UniProt P01116); test: Binding to KRAS by surface plasmon resonance (SPR), Single Cycle Kinetics; conditions: GDP-bound KRAS wild-type protein, read-out: KRAS KD
[2] = molecular target: GDP-bound NRAS wild-type protein (Homo sapiens, UniProt P01111); test: Binding to NRAS by surface plasmon resonance (SPR), Single Cycle Kinetics; conditions: SPR, GDP-bound NRAS wild-type protein vs GDP-bound KRAS wild-type protein
[3] = molecular target: GDP-bound HRAS wild-type protein (Homo sapiens, UniProt P01112); test: Binding to HRAS by surface plasmon resonance (SPR), Single Cycle Kinetics; conditions: SPR, GDP-bound HRAS wild-type protein vs GDP-bound KRAS wild-type protein
[4] = SPR Single Cycle Kinetics, 1:1 binding model
[5] = SPR, Single Cycle Kinetics, 1:1 binding model

Chain of GDP-bound HRAS wild-type protein (P01112 whole entry): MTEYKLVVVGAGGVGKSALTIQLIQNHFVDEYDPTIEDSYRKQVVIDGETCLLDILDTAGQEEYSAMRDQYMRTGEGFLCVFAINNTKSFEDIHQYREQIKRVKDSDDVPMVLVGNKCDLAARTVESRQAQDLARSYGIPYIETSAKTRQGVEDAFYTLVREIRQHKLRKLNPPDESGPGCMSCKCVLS
Chain of GDP-bound NRAS wild-type protein (P01111 whole entry): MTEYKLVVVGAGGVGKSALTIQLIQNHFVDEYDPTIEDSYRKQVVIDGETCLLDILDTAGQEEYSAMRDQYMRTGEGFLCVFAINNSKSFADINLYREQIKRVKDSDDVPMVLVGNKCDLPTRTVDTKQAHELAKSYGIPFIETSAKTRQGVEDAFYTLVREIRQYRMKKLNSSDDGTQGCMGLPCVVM
Chain of GDP-bound KRAS wild-type protein (P01116 whole entry): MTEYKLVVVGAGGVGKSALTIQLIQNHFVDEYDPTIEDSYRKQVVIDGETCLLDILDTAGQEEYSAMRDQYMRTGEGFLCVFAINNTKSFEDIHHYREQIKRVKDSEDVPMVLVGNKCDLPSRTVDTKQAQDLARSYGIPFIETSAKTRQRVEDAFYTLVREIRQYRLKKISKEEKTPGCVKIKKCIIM

pKd [1, 4]: 9.30
SMILES: CCCN1C(=O)[C@@H]2CCN2C(=O)[C@H](C)N(C)C(=O)[C@H]([C@@H](C)CC)NC(=O)[C@H](CC(C)C)N(CC)C(=O)C[C@@H](C(=O)N2CCOCC2)N(C)C(=O)[C@H](C2CCCC2)N(C)C(=O)C2(CCCC2)NC(=O)[C@@H]2CCCN2C(=O)[C@H](CCc2ccc(C(F)(F)F)c(Cl)c2)NC(=O)CN(C)C(=O)[C@@H]1Cc1ccc(C(F)(F)F)cc1 [PP0151] ([NEtLeu]I[NMeA][Aze][NPrPhe(4-CF3)][Sar][hPhe(3-Cl-4-CF3)]P[Ac5c][NMeGly(cPent)][NMeD]-Morpholide; lactam N-11)
NRAS/KRAS (ratio of KD value for NRAS to KD value for KRAS) [2]: C (A compound having a KD ratio of 0.1 or more and less than 3 is denoted as C)
HRAS/KRAS (ratio of KD value for HRAS to KD value for KRAS) [3]: C (A compound having a KD ratio of 0.1 or more and less than 3 is denoted as C)

pKd [1, 4]: 9.77
SMILES: CC[C@H](C)[C@@H]1NC(=O)[C@H](CC(C)C)N(C)C(=O)C[C@@H](C(=O)N2CCOCC2)N(C)C(=O)[C@H](C2CCCC2)N(C)C(=O)C2(CCCC2)NC(=O)[C@@H]2CCCN2C(=O)[C@H](CCc2ccc(C(F)(F)F)c(Cl)c2)NC(=O)CN(C)C(=O)[C@H](Cc2ccc(Cl)cc2)N2CC=CC[C@@H](C2=O)N(C)C(=O)CN(C)C1=O [PP0533]
NRAS/KRAS (ratio of KD value with respect to NRAS to KD value with respect to KRAS) [2]: C (A compound having a KD ratio of 0.1 or more and less than 3 is denoted as C)
HRAS/KRAS (ratio of KD value with respect to HRAS to KD value with respect to KRAS) [3]: C (A compound having a KD ratio of 0.1 or more and less than 3 is denoted as C)

pKd [1, 4]: 7.60
SMILES: CC[C@H](C)[C@@H]1NC(=O)[C@H](CC(C)C)N(C)C(=O)C[C@@H](C(=O)N2CCOCC2)N(C)C(=O)[C@H](CC(F)(F)F)N(C)C(=O)C2(CCCC2)NC(=O)[C@@H]2CCCN2C(=O)[C@H](CCc2cc(F)c(C(F)(F)F)c(F)c2)NC(=O)CN(C)C(=O)[C@H](Cc2ccc(C(F)(F)F)cc2)N2CCCCC[C@@H](C2=O)N(C)C(=O)CN(C)C1=O [PP0506]
NRAS/KRAS (ratio of KD value with respect to NRAS to KD value with respect to KRAS) [2]: B (a compound having 3 or more and less than 10 is denoted as B)
HRAS/KRAS (ratio of KD value with respect to HRAS to KD value with respect to KRAS) [3]: B (a compound having 3 or more and less than 10 is denoted as B)

pKd ([1]; SPR, Single Cycle Kinetics): 8.77
SMILES: CCO[C@@H]1C[C@H]2C(=O)NC3(CCCC3)C(=O)N(C)[C@@H](C3CCCC3)C(=O)N(C)[C@H](C(=O)N(C)C)CC(=O)N(C)[C@@H](CC(C)C)C(=O)N[C@@H]([C@@H](C)CC)C(=O)N(C)CC(=O)N(C)[C@H]3CC(C)=C(C)CN(C3=O)[C@@H](Cc3ccc(C(F)(F)F)cc3)C(=O)N(C)CC(=O)N[C@@H](CCc3cc(F)c(C(F)(F)F)c(F)c3)C(=O)N2C1 [PP1045]
NRAS/KRAS (ratio of KD value for NRAS to KD value for KRAS) [2]: C (A compound having a KD ratio of 0.1 or more and less than 3 is denoted as C)
HRAS/KRAS (ratio of KD value for HRAS to KD value for KRAS) [3]: C (A compound having a KD ratio of 0.1 or more and less than 3 is denoted as C)

pKd [1, 5]: 9.23
SMILES: CCO[C@@H]1C[C@H]2C(=O)NC3(CCC3)C(=O)N(C)[C@@H](C3CCCC3)C(=O)N(C)[C@H](C(=O)N(C)CCOC)CC(=O)N(C)[C@@H](CC)C(=O)N[C@@H]([C@@H](C)CC)C(=O)N(C)CC(=O)N(C)[C@H]3C/C=C\CCN(C3=O)[C@@H](Cc3ccc(C(F)(F)F)cc3)C(=O)N(C)CC(=O)N[C@@H](CCc3ccc4sccc4c3)C(=O)N2C1 [PP1322]
NRAS/KRAS (ratio of KD value for NRAS to KD value for KRAS) ([2]; KD ratio class): A (a compound having 10 or more and less than 20 is denoted as A)
HRAS/KRAS (ratio of KD value for HRAS to KD value for KRAS) ([3]; KD ratio class): A (a compound having 10 or more and less than 20 is denoted as A)

pKd [1, 5]: 9.77
SMILES: CC[C@H](C)[C@@H]1NC(=O)[C@H](CC2CC2)N(C)C(=O)C[C@@H](C(=O)N(C)C)N(C)C(=O)[C@H](C2CCCC2)N(C)C(=O)C2(CC(C)(C)C2)NC(=O)[C@@H]2C[C@@H](C(F)(F)F)CN2C(=O)[C@H](CCc2cc(F)c(C(F)(F)F)c(F)c2)NC(=O)CN(C)C(=O)[C@H](Cc2ccc(F)cc2)N2CC/C=C\C[C@@H](C2=O)N(C)C(=O)CN(C)C1=O [PP1507]
NRAS/KRAS (ratio of KD value for NRAS to KD value for KRAS) ([2]; KD ratio class): A (a compound having 10 or more and less than 20 is denoted as A)
HRAS/KRAS (ratio of KD value for HRAS to KD value for KRAS) ([3]; KD ratio class): A (a compound having 10 or more and less than 20 is denoted as A)

pKd [1, 4]: 10.47
SMILES: CC[C@H](C)[C@@H]1NC(=O)[C@H](CC(C)C)N(C)C(=O)C[C@@H](C(=O)N(C)C)N(C)C(=O)[C@H](C2CCCC2)N(C)C(=O)C2(CCCC2)NC(=O)[C@@H]2CCCN2C(=O)[C@H](CCc2cc(F)c(C(F)(F)F)c(F)c2)NC(=O)CN(C)C(=O)[C@H](Cc2ccc(C(F)(F)F)cc2)N2CCCC[C@@H](C2=O)N(C)C(=O)CN(C)C1=O [PP0569]
NRAS/KRAS (ratio of KD value with respect to NRAS to KD value with respect to KRAS) [2]: C (A compound having a KD ratio of 0.1 or more and less than 3 is denoted as C)
HRAS/KRAS (ratio of KD value with respect to HRAS to KD value with respect to KRAS) [3]: B (a compound having 3 or more and less than 10 is denoted as B)
